Counter-ions that a name gives are not always drawn.
What was measured:
Hep3B-Luc cell line = assay: CellTiter-Glo growth inhibition assay, Hep3B-Luc; assay type: cell-based; details: Homo sapiens, Hep 3B-Luc, 72 h
Method: Before compound treatment, the compound was dissolved in H2O to make a 10 mM stock solution. The working solutions (5 folds final concentrations) were then prepared with MEM medium (Gibco, 1128319) containing 10% Fetal Bovine Serum (Gibco, 10099141).
Hep3B-Luc cell line (luciferase transfected human liver carcinoma cell line for orthotopic tumor model) was cultured in MEM Medium supplemented with 10% v/v Fetal Bovine Serum (FBS), 1% Penicillin-Streptomycin and maintained at 37° C. with 5% CO2. 800 cells were plated onto 384-well flat clear bottom white (Corning, 3707).
Cells in log-phase are collected and counted. Cell suspensions are added to each well of 384-well plate at 800 cells per well (total volume 40 μl). The margin wells are filled with PBS buffer. Test compound at various concentrations are added in duplicates (add 10 μl 5× compound solutions to the plate). The assay plate is incubated for 72 h in 37° C./5% CO2 incubator. Cell viability was measured using the CellTiter-Glo® luminescent cell viability assay as described by the manufacturer (Promega, Ref G7571). After addition of 100 μL of CellTiter-Glo® reactifs solution, luminescence was measured using a PHERAstar Plus luminometer. Data were recorded by PHERAstar Plus, Data acquisition and analysis were performed using Microsoft Excel program and GraphPad Prism v.6 software.

[1] = system: LI0574 HCC patient derived cells; assay: CellTiter-Glo growth inhibition, HCC patient-derived cells LI0574; assay type: cell-based, human; details: Homo sapiens; LI0574, 72 hours
Method: (§1) The patient derived Hepatocellular Carcinoma (HCC) cells were maintained in medium respectively described in table 15 containing 1% penicillin-streptomycin (Life Technologies, 15070-063), with a supplements for primary cell culture (PCS) containing hydrocortisone (50 nM), Epidermal Growth Factor (20 ng/ml), β-fibroblast Growth Factor (10 ng/ml), Heparin (2 μg/ml) ITS liquid media supplement (1×) and non-essential amino acid (NEAA, 0.01 mM, 1×). The primary cell were cultured in a humidified atmosphere (95% relative humidity) with 5% CO2 at 37° C.
(§2) The cell growth inhibition assay was performed as described previously in example 5 using the CellTiter-Glo® luminescent cell viability assay as described by the manufacturer (Promega, Ref G7571). The number of cells seeded per well (in 96-Well Flat Clear Bottom Black Polystyrene TC-Treated Microplates, Cat #3340, Corning®) is described in the table 16. A backseal black sticker (Cat #6005189, Perkin Elmer) was placed to the bottom of each plate before recording CellTiter-Glo® luminescence.
(§3) The experimental data are analyzed using a computer program, Graphpad Prism V 5.0 (GraphPad Software, Inc. La Jolla, Calif.) and EC50 values were determined as the dose of compound required to reduce absorbance values to 50% of the signal obtained for vehicle treated cell cultures and were a mean of at least three independent experiments.

[2] = system: LI1005 HCC patient derived cells; assay: CellTiter-Glo growth inhibition, HCC patient-derived cells LI1005; assay type: cell-based, human; details: Homo sapiens; LI1005, 72 hours
Method: as §1, §2, §3

[3] = system: PBMC (peripheral blood mononuclear cell); assay: CellTiter-Glo growth inhibition assay, PBMC; assay type: cell-based; details: 72 h
Method: (§4) All cell lines were maintained in medium containing 1% penicillin-streptomycin (Dutscher, P06-07100) and 10% Fetal Bovine Serum (Gibco, W3387L) except 20% for KG-1 cell line and PBMC, and cultured at 37° C. with 5% CO2.
PBMC was maintained in RPMI 1640 medium medium (Dutscher, L0498).
(§5) Cell viability was measured using the CellTiter-Glo® luminescent cell viability assay as described by the manufacturer (Promega, Ref G7571) using an Infinite F200Pro luminometer (Tecan). Briefly, for adherent cells, cells were plated onto 96-well plates (white with clear bottom) in 90 μL of media per well and were allowed to grow overnight before the assay. For cells growing in suspension, cells were plated onto 96-well plates immediately before the assay.
Compounds were added at different concentrations to each well, and cell cultures were incubated for 72 h. Vehicle (H2O) was used as a control, and all compounds were tested in a constant percentage of H2O. After addition of 100 μL of CellTiter-Glo®, luminescence was measured using an Infinite F200Pro (Tecan). EC50 values were determined as the dose of compound required to reduce luminescent values to 50% of the signal obtained for untreated cell cultures. The experimental data were analyzed using a computer program, Graphpad Prism v5 (GraphPad Software, Inc. La Jolla, Calif.). […]

MOLM-14 cell line = assay: CellTiter-Glo cell viability / growth inhibition assay, MOLM-14 (Example 5); assay type: cell-based; details: Homo sapiens, 72 h
Method: as §4
MOLM-14 cell line was maintained in MEM alpha medium (Gibco, 22561-021).
as §5
Compounds were added at different concentrations to each well, and cell cultures were incubated for 72 h. Vehicle (H2O) was used as a control, and all compounds were tested in a constant percentage of H2O. After addition of 100 μL of CellTiter-Glo®, luminescence was measured using an Infinite F200Pro (Tecan). EC50 values were determined as the dose of compound required to reduce luminescent values to 50% of the signal obtained for untreated cell cultures. The experimental data were analyzed using a computer program, Graphpad Prism v5 (GraphPad Software, Inc. La Jolla, Calif.).
All experiments were at least done in duplicate and repeated two independent times.

[4] = system: CPP30 liver metastatic CRC patient-derived cells; assay: CellTiter-Glo growth inhibition, liver metastatic CRC patient-derived cells CPP30; assay type: cell-based; details: Homo sapiens; CPP30, 72 h
Text: (§6) Patient derived liver metastasis cells (CPP19, 30, 36 and CPP45—see table 1 for clinical descriptions) were maintained in complete DMEM (Gibco) with 10% FBS. Cells were obtained from biopsies provided by CHU-Caremeau (Nimes, France) within an approved protocol. Signed informed consents were obtained from patients prior to samples acquisition in accordance with all ethical and legal aspects. Tumors were washed, minced into fragments (<2 mm^3) and digested with liberase H (0.26 U/mL, Roche) resuspended in Accumax (Sigma-Aldrich). After 2 hours at 37° C., cell suspension was filtered through a […] to obtain a single cell suspension and plated in DMEM medium, supplemented with FBS, glutamine, antibiotics and non-essential aminoacids. When a monolayer of patient-derived tumor cells was formed, cells were detached using trypsin/EDTA and resuspended in DMEM with 10% FBS (for adherent cells) or defined M11 media (for sphere formation). Cells were cultured in a humidified atmosphere at 37° C. and 5% CO2.
(§7) Cells were plated at 10^4 cells per well in P96 well plates in DMEM with 10% FBS. After 24 hours, cells were treated with compound 2-3 and cell viability was assessed 72 h post-treatment by CellTiter-Glo® Luminescent Cell Viability Assay (Promega). EC50 were calculated using GraphPad Prism Software v6 (Graphpad Software, Inc La Jolla, Calif.). […]

[5] = system: CPP36 liver metastatic CRC patient-derived cells; assay: CellTiter-Glo growth inhibition, liver metastatic CRC patient-derived cells CPP36; assay type: cell-based; details: Homo sapiens; CPP36, 72 h
Text: as §6, §7

EC50 (Hep3B-Luc cell line): 1100 nM
EC50 [1]: 2400 nM
EC50 [2]: 3.2 µM
EC50 (MOLM-14 cell line; MOLM-14, acute myeloïd leukemia, FLT3-ITD heterozygote+/−): 2200 nM
SMILES: CC(C)(C)NC1CCN(c2cc(NCc3ccc(Cl)cc3)nc3ccccc23)CC1 [Compound 2-3, 2-(4-chlorobenzylamino)-4-(4-tert-butylaminopiperidin-1-yl)-quinoline hydrochloride salt]
EC50 [3]: 1900 nM
viability at 4 µM (MOLM-14 cell line; MOLM-14, 4 μM): 31.8%
viability at 10 µM (MOLM-14 cell line; MOLM-14, 10 μM): 0.3%
EC50 [4]: 1220 nM
EC50 [5]: 1450 nM

— US10722505B2, “Substituted 2,4 diamino-quinoline as new anticancer agents” (GENOSCIENCE PHARMA, priority 2014, dated 2020)
